Test results taken from ChEMBL document CHEMBL5620368, “Molecular-level strategic goals and repressors in Leishmaniasis - Integrated data to accelerate target-based heterocyclic scaffolds” (Eur J Med Chem, 2023).
Converted amounts (≈) assume the structure as drawn. Values belong to the molecule of their own block, whether it stands above or below them.

Experiments:
[1] = target: T1, DNA topoisomerase I (Leishmania donovani (strain BPK282A1), UniProt E9BRC0); test: Inhibition of Leishmania donovani DNA topoisomerase I
T1 sequence (E9BRC0 whole entry): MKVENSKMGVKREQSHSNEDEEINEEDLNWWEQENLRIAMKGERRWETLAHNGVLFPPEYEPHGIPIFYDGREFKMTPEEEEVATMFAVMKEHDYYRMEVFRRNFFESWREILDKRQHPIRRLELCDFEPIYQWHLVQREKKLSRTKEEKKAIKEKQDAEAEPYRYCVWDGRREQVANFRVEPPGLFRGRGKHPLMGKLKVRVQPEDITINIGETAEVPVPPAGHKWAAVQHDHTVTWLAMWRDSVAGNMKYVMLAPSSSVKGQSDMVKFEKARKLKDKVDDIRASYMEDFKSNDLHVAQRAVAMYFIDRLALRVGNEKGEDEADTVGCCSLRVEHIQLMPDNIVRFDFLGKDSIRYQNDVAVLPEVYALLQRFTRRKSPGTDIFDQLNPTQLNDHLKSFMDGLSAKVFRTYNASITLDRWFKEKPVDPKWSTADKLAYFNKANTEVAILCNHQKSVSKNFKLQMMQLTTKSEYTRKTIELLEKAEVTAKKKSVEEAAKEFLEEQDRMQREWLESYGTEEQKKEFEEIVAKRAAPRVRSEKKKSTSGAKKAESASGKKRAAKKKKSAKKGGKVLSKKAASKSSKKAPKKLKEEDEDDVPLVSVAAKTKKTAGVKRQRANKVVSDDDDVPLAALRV

[2] = system: Leishmania donovani; test: Antileishmanial activity against Leishmania donovani MHOM/IN/1983/AG83 promastigote assessed as reduction in parasite growth incubated for 12 hrs by MTT assay; format: functional, organism-based; conditions: MHOM/IN/1983/AG83, 12 h
[3] = system: Leishmania donovani; test: Antileishmanial activity against Leishmania donovani promastigotes infected in hamster assessed as reduction in parasite load in spleen; format: functional, organism-based
[4] = system: Leishmania infantum; test: Antileishmanial activity against GFP-expressing Leishmania infantum intracellular amastigotes infected in human THP-1 derived macrophage cells assessed as reduction in parasite viability measured for 72 hrs by resazurin/alamar blue fluorometric assay; format: functional, organism-based; conditions: THP-1, 72 h
[5] = system: Leishmania infantum; test: Inhibition of Leishmania infantum promastigotes Arginase expressed in Escherichia coli BL21 (DE3) at 100 uM by enzymatic assay relative to control
[6] = system: Leishmania infantum; test: Inhibition of Leishmania infantum Arginase expressed in Escherichia coli BL21 (DE3) at 100 uM by enzymatic assay relative to control
[7] = system: Leishmania mexicana; test: Antileishmanial activity against Leishmania mexicana promastigotes MHOM/B2/62/BEL21 assessed as reduction in parasite growth by tryphan blue staining based analysis; format: functional, organism-based
[8] = system: Leishmania infantum; test: Antileishmanial activity against Leishmania infantum MCAN/ES/ 89/IPZ229/1/89 axenic amastigotes assessed as reduction in parasite viability treated for 24 hrs by PI staining based flow cytometry; format: functional, organism-based; conditions: MCAN/ES/ 89/IPZ229/1/89, 24 h
[9] = system: Leishmania infantum; test: Antileishmanial activity against Leishmania infantum MCAN/ES/ 89/IPZ229/1/89 promastigote assessed as reduction in parasite viability incubated for 24 hrs by PI staining based flow cytometry; format: functional, organism-based; conditions: MCAN/ES/ 89/IPZ229/1/89, 24 h
[10] = Inhibition of Leishmania infantum Trypanothione reductase
[11] = target: T2, Arginase (Leishmania amazonensis, UniProt O96394); test: Inhibition of Leishmania amazonensis Arginase
[12] = system: Leishmania donovani; test: Antileishmanial activity against Leishmania donovani MHOM/IN/83/AG83 promastigotes infected in BALB/c mouse assessed as reduction of parasite burden in spleen at 20 mg/kg per day relative to control; format: functional; parameters: scale not given: the % may be the effect or the level left
[13] = system: Leishmania infantum; test: Antileishmanial activity against Leishmania infantum infected in BALB/c mouse assessed as reduction of parasite burden in spleen at 2.5 mg/kg for 15 days relative to control; format: functional; parameters: scale not given: the % may be the effect or the level left; conditions: time 15 day
[14] = target: Trypanothione reductase (Leishmania donovani, UniProt P39050); test: Inhibition of Leishmania donovani Trypanothione reductase
[15] = system: Leishmania amazonensis; test: Antileishmanial activity against Leishmania amazonensis intracellular amastigotes assessed as parasite growth inhibition; format: functional, organism-based
[16] = system: Leishmania donovani; test: Antileishmanial activity against Leishmania donovani intracellular amastigotes assessed as parasite growth inhibition; format: functional, organism-based
[17] = system: Leishmania donovani; test: Antileishmanial activity against Leishmania donovani promastigotes assessed as parasite growth inhibition incubated for 72 hrs by Alamar blue staining based analysis; format: functional, organism-based
[18] = Inhibition of recombinant rat liver arginase
[19] = system: Leishmania amazonensis; test: Antiprotozoal activity against Leishmania amazonensis axenic amastigotes assessed as growth inhibition measured after 5 days by MTT assay; format: functional, organism-based; conditions: 120 h
[20] = system: Leishmania donovani; test: Antileishmanial activity against Leishmania donovani promastigotes infected in golden hamster assessed as reduction in parasite load in spleen at 3 mg/kg administered twice per week for 4 weeks relative to control; format: functional; parameters: scale not given: the % may be the effect or the level left
[21] = system: Leishmania donovani; test: Antileishmanial activity against Leishmania donovani promastigotes assessed as reduction in parasitic growth by MTT assay; format: functional, organism-based
[22] = system: Leishmania donovani; test: Antileishmanial activity against Leishmania donovani Ag83 amastigotes infected in BALB/c mouse macrophage assessed as cell viability incubated for 48 hrs by PI staining based analysis; format: functional, organism-based; conditions: Ag83, 48 h
[23] = target: T2, Arginase; test: Inhibition of Leishmania amazonensis Arginase assessed as inhibition constant

Sequence of Trypanothione reductase (P39050 whole entry): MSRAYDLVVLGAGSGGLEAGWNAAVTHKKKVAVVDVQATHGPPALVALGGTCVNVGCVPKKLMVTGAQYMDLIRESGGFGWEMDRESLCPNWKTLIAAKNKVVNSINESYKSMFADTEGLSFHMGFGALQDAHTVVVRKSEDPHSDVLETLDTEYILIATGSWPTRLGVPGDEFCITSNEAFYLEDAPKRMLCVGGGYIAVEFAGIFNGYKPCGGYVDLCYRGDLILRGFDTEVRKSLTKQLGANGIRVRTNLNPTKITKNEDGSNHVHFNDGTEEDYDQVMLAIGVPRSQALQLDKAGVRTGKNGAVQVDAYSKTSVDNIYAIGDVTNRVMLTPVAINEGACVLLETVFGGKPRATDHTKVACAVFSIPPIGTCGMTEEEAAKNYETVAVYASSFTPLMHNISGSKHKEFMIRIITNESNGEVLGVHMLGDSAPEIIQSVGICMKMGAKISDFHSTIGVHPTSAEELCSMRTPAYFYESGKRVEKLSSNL

IC50 [1]: > 100 µM
Structure (SMILES): CC(=O)Oc1ccc(OC(C)=O)c2cc3c(cc12)CCCC3(C)C

IC50 [3]: 11.5 µM
Structure (SMILES): O=C(c1ccc(Br)cc1)c1cc(O)cc(-c2ccc(Br)cc2)c1
IC50 [2]: 6.01 µM

Structure (SMILES): O=C(Cc1cccc2ccccc12)Nc1ccc([Se][Se]c2ccc(NC(=O)c3cccc4ccccc34)cc2)cc1
EC50 [4]: 0.5 µM

inhibition [5]: 74.1% | inhibition [6]: 72.3%
Structure (SMILES): O=C(/C=C/c1ccc(F)cc1)c1ccccc1Cl

Structure (SMILES): CCCCCCCCCCCCCCCCOP(=O)([O-])OCC[N+](C)(C)C [MILTEFOSINE]
IC50 [7]: 2.18 µg/mL (≈ 5.35 µM)

IC50 [10]: 8.6 µM
Structure (SMILES): NCCNCc1nccn1-c1ccc(-c2nc(CCc3ccccc3-c3ccccc3)cs2)c(OCCN2CCNC2=O)c1
EC50 [8]: 5.3 µM | EC50 [9]: 5.3 µM

IC50 [11]: 12.7 µM
Structure (SMILES): CC(=O)Cc1ccccc1C(F)(F)C(=O)NNc1ccccc1

Structure (SMILES): CC(C)CN(C[C@@H](O)[C@H](Cc1ccccc1)NC(=O)O[C@H]1CCOC1)S(=O)(=O)c1ccc(N)cc1 [AMPRENAVIR]
Activity [12]: 98%

IC50 [3]: 9.81 µM
Structure (SMILES): O=C1OC(c2ccc(Cl)cc2)c2cc(-c3ccc(Cl)cc3)cc(O)c21 (stereo not drawn)
IC50 [2]: 5.4 µM

IC50 [10]: 5.1 µM
Structure (SMILES): NCCNCc1nccn1-c1ccc(-c2nc(CCc3cccc4ccccc34)cs2)c(OCCN2CCNC2=O)c1
EC50 [8]: 12.8 µM | EC50 [9]: 12.8 µM

Structure (SMILES): O=C1c2ccccc2-c2c1c1ccc([N+](=O)[O-])cc1c(=O)n2CCCN1CCOCC1
Activity [13]: 80%

Structure (SMILES): O=c1cc(-c2ccc(O)c(O)c2)oc2cc(O)cc(O)c12 [LUTEOLIN]
IC50 [11]: 9 µM

IC50 [14]: 98.4 µM
Structure (SMILES): O[C@H](CC1c2ccccc2-c2ccccc21)CN1CCN(C[C@H](O)C[C@@H]2c3ccc(Br)cc3-c3cc(Br)cc(Br)c32)CC1

Structure (SMILES): C[C@@H]1[C@H](O)[C@@H](C)/C=C/C=C/C=C/C=C/C=C/C=C/C=C/[C@H](O[C@@H]2O[C@H](C)[C@@H](O)[C@H](N)[C@@H]2O)C[C@@H]2O[C@](O)(C[C@@H](O)C[C@@H](O)[C@H](O)CC[C@@H](O)C[C@@H](O)CC(=O)O[C@H]1C)C[C@H](O)[C@H]2C(=O)O [AMPHOTERICIN B]
IC50 [7]: 0.036 µg/mL (≈ 0.039 µM)

Structure (SMILES): COc1cc(C)cc2c1C(=O)C1OC1(c1c(C)cc3c(c1OC)C(=O)C1OC1C3=O)C2=O (stereo not drawn)
IC50 [15]: 0.18 µM | IC50 [16]: 20.7 µM | IC50 [17]: 20.7 µM

Structure (SMILES): O=C(O)c1cc(O)c(O)c(O)c1 [GALLIC ACID]
IC50 [18]: 3.8 µM

Structure (SMILES): COc1ccc2c(c[n+](C)c3c4cc5c(cc4ccc23)OCO5)c1OC [CHELERYTHRINE]
IC50 [19]: 0.03 µM

inhibition [5]: 70.4% | inhibition [6]: 69.5%
Structure (SMILES): COc1ccc(C(=O)/C=C/c2ccc([N+](=O)[O-])cc2)cc1

Structure (SMILES): O=C(Nc1ccc(F)c(-c2ccn3c(N4CCOCC4)cnc3n2)c1)N1CCCC1 [GSK-3494245]
Activity [20]: 95%

Structure (SMILES): COC(=O)c1ccc(C2OC(C)(C)C3CC(=O)C(C)C2C3)cc1 (stereo not drawn)
IC50 [21]: 4.9 µM

Structure (SMILES): CCc1ccc2c(c1)C1c3ccccc3CC1C(c1ccccn1)N2 (stereo not drawn)
IC50 [7]: 1 µg/mL (≈ 3.06 µM)

IC50 [18]: 0.77 µM
Structure (SMILES): Oc1cc(O)c2c(c1)O[C@@H](c1ccc(O)c(O)c1)[C@H](O)C2 [(-)-CATECHIN]

Structure (SMILES): Cc1cc2c(c(=O)[nH]1)C(=O)O/C2=C/c1ccccc1
EC50 [22]: 1 µM

Structure (SMILES): COc1ccc([C@@H]2Cc3cc(OC)c(O)cc3[C@H](CO)[C@@H]2COC2OCC(O)[C@@H](O)[C@H]2O)cc1O (stereo partly drawn)
EC50 [22]: 1.84 µM

inhibition [5]: 55.2% | inhibition [6]: 71.9%
Structure (SMILES): O=C(/C=C/c1ccc([N+](=O)[O-])cc1)c1ccc(Br)cc1

Ki [23]: 26 µM | IC50 [11]: 14 µM
Structure (SMILES): CC1OC(O[C@H]2[C@H](O)[C@@H](OCCc3ccc(O)c(O)c3)OC(CO)[C@H]2OC(=O)/C=C/c2ccc(O)c(O)c2)C(O)C(O)C1O (stereo partly drawn)
